pIC50: −log10 of the molar value.

For orientation: pIC50 means −log10 of the IC50, conventionally taken in molar units.

T1 sequence (P08581 969-1390): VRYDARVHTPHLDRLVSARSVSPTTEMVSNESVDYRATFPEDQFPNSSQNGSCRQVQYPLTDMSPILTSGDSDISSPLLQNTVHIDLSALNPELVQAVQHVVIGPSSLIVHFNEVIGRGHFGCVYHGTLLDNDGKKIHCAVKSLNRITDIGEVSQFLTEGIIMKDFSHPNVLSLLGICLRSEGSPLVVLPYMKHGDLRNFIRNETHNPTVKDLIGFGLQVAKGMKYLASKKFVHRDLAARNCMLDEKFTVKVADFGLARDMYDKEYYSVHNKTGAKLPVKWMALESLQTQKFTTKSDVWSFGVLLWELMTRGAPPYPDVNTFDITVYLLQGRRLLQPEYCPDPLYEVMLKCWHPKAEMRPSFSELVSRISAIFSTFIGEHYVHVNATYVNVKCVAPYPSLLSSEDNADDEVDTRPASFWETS

The test concerns the target T1, cMET receptor tyrosine kinase (GST-cMET (969-1390)) (Homo sapiens, UniProt P08581).
T1 construct: made in house
The experiment in a line: EPK cMET profiling assay (LanthaScreen TR-FRET antibody based kinase phosphorylation assay). Type of test: biochemical. The settings on record: purified recombinant GST-cMET (969-1390), 2 μM ATP, 50 nM Fluorescein-PolyEAY, 60 minutes at room temperature; read-out: c-Met IC50. Summed up:
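GST-cMET cytoplasmic domain (969-1390), 0.3 nM, phosphorylated 50 nM fluorescein-PolyEAY with 2 µM ATP, Mg2+/Mn2+, 0.6% DMSO, 60 min at room temperature. Stopped with EDTA; Tb-PY20 antibody TR-FRET single end-point read. Final compound concentrations 10 to 0.003 µM, 8 points.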
On the technique in general: In TR-FRET formats the signal depends on donor and acceptor labels being close together.
On to `Cn1cc(-c2ccc3ncc(Cc4ccc5ncc(C#N)n5c4)n3n2)cn1` [Example 302, 6-[6-(1-Methyl-1H-pyrazol-4-yl)-imidazo[1,2-b]pyridazin-3-ylmethyl]-imidazo[1,2-a]pyridine-3-carbonitrile], for which the negative-log IC50 (pIC50) was 7.03.

With `CC(O)c1cnc2ccc(Cc3cnc4ccc(-c5cnn(C)c5)nn34)cn12` (stereo not drawn) [Example 303, 1-{6-[6-(1-Methyl-1H-pyrazol-4-yl)-imidazo[1,2-b]pyridazin-3-ylmethyl]-imidazo[1,2-a]pyridin-3-yl}-ethanol], the pIC50 is 6.72. The figure for `Cn1cc(-c2ccc3ncc(Cc4ccc5ncc(C(O)CO)n5c4)n3n2)cn1` (stereo not drawn) [Example 304, 1-{6-[6-(1-Methyl-1H-pyrazol-4-yl)-imidazo[1,2-b]pyridazin-3-ylmethyl]-imidazo[1,2-a]pyridin-3-yl}-ethane-1,2-diol] is 6.48; for `Cn1cc(-c2ccc3ncc(Cc4ccc5ncc(-c6cccc(C#N)c6)n5c4)n3n2)cn1` [Example 305, 3-{6-[6-(1-Methyl-1H-pyrazol-4-yl)-imidazo[1,2-b]pyridazin-3-ylmethyl]-imidazo[1,2-a]pyridin-3-yl}-benzonitrile] it is 6.59. Turning to `Cn1cc(-c2ccc3ncc(Cc4ccc5ncc(-c6cccnc6)n5c4)n3n2)cn1` [Example 306, 6-(1-Methyl-1H-pyrazol-4-yl)-3-(3-pyridin-3-yl-imidazo[1,2-a]pyridin-6-ylmethyl)-imidazo[1,2-b]pyridazine], the negative-log IC50 (pIC50) is 7.00. Regarding `Cn1cc(-c2ccc3ncc(Cc4ccc5ncc(-c6cnn(C)c6)n5c4)n3n2)cn1` [Example 307, 6-(1-Methyl-1H-pyrazol-4-yl)-3-[3-(1-methyl-1H-pyrazol-4-yl)-imidazo[1,2-a]pyridin-6-ylmethyl]-imidazo[1,2-b]pyridazine], the pIC50 was 6.49.

Source of the values: patent US8822468B2 (Novartis AG, priority 2008, dated 2014).
